In patent US4503076A, “Vasodilator compound and pharmaceutical compositions therefrom” (Ausonia Farmaceutic s.r.l., priority 1981, dated 1985):
Read-outs that look alike come from different tables or passages of the source.

Tests used:
[1] = Solubility; format: physicochemical
[2] = Acute toxicity (DL50) in mice; conditions: mouse, in vivo
Text: The DL50 has been determined in mice by the oral as well as intraperitoneal route.

[3] = test system: lower limb of rats (vascular zone); assay: Vasodilator activity, perfusion of the lower limb of rats (Foster et al.); conditions: for inhibition at 50 µg/mL: read-out: Decrease in pressure, %
Text: (Foster et al., J.Pharmacol.Exp.Ther. 89,256,1947)
This study has been carried out in rats by perfusion of the lower limb while determining the variation of the resistance offered by the vascular zone after the perfusion by means of a suitable pressure transducer.
The vaso-constricting agent used is a solution containing a high content of potassium, together with papaverine, the latter being used for comparison purposes.

[4] = test system: rats having normal blood pressure; assay: Hypotensive activity in rats having normal blood pressure; format: in vivo; conditions: for Time of maximum hypotensive effect: i.p., rats with normal blood pressure
Procedure: The product has been administered by the intraperitoneal route to rats having normal blood pressure in the dose of 10 and 25 mg/kg. The systolic pressure of the animals has been measured 1, 4, and 24 hours respectively after the treatment using hydralazine in the dose of 1 mg/kg intraperitoneally for comparison. […] When the substance is administered in the dose of 25 mg/kg, the decrease in the systolic pressure is 2.5 times the decrease caused by hydralazine administered in the dose of 1 mg/kg.

[5] = test system: rats having genetically high blood pressure; assay: Antihypertensive activity in rats having genetically high blood pressure; format: in vivo; conditions: 25 mg/kg orally
Procedure: There are utilized for this test rats having genetically high blood pressure. The rats are treated for three days with AF 544 in the dose of 25 mg/kg orally. After each treatment and specifically after 1, 4, 8 and 24 hours respectively, the systolic pressure of the animals is measured.

[6] = test system: rats treated to cause an increase in blood pressure by tying the abdominal aorta; assay: Antihypertensive activity in rats with tied abdominal aorta, blood pressure; format: in vivo
Procedure: (§1) In a second experiment, the substance AF 544 has been administered to rats which have been treated to cause an increase in blood pressure, specifically by tying the abdominal aorta. The administration has been carried out by the oral route in the dose of 20 and 40 mg/kg respectively. Measurements of diastolic pressure, systolic pressure and average pressure are made after 1, 15, and 30 minutes. After 30 minutes, for each group, determinations are made of the hematic renin and the hematic angiotensin. The dose of 20 mg/kg is found to reduce the diastolic pressure of 10-15% while the systolic pressure and the average pressure remain unchanged. On the other hand, the dose of 40 mg/kg is found to be effective on all three parameters, causing an average reduction of about 25%.

[7] = test system: renin; assay: Hematic renin in rats with tied abdominal aorta; format: in vivo; conditions: 20 and 40 mg/kg oral, after 30 minutes
Procedure: as §1

[8] = test system: angiotensin; assay: Hematic angiotensin in rats with tied abdominal aorta; format: in vivo; conditions: 20 and 40 mg/kg oral, after 30 minutes
Procedure: as §1

[9] = test system: anaesthesized cats; assay: Effect on the circulation and on breathing of anaesthetized cats; format: in vivo
Procedure: For this test, six cats of both sexes are used. The animals had been brought to a state of anaesthesia by means of urethane. The substance AF 544 is administered by the endovenous route in the dose of 0.1-1 mg/kg. The following parameters have been studied: average arterial pressure, amplitude and respiratory frequency, effect on pressure responses to various agonists, (acetylcholine, adrenaline, occlusion of the carotid artery, and vagal stimulation).

[10] = test system: isolated small intestine (ileum) of guinea pigs; assay: Spasmolytic activity in vitro on the isolated small intestine (ileum) of guinea pigs, barium chloride as agonist; conditions: 10^-6 g/cc; for % inhibition: incubation 1 minute, BaCl2 2.10^-6 g/cc
Procedure: The tests are carried out in vitro utilizing the isolated small intestine of guinea pigs. As agonist, there is used barium chloride in the dose of 2.10^-6 g/cc. The substance AF 544 and papaverine, which is a substance having well-known spasmolytic activity, are tested in the same concentration of 10^-6 g/cc.

[11] = perfused rat lower limb, dose 5.10^-5 g/cc, high-potassium vasoconstriction

Compound: CC(=N)Nc1c(Cl)cccc1Cl
- Solubility in water ([1]; in water): soluble in water

Compound: CC(=N)Nc1c(Cl)cccc1Cl [AF 544, N-(2,6-dichlorophenyl)acetamidine]
- LD50 ([2]; ip): 170 mg/kg
- LD50 ([2]; po, orally): 420 mg/kg
- Vasodilator activity (in words) ([3]; compared with papaverine at equal dose): substantial vasodilator activity, which is only slightly inferior to that of papaverine at equal dose
- Decrease in pressure, mm Hg ± e.s [3, 11]: 60 ± 3.2 mm Hg
- inhibition at 50 µg/mL [3, 11]: 27.5%
- Percentage variation of systolic pressure with respect to the basal values ([4]; 10 mg/kg i.p., 1 hour): -1.5 ± 1.8%
- Percentage variation of systolic pressure with respect to the basal values ([4]; 10 mg/kg i.p., 4 hours): -13.1 ± 6.8%
- Percentage variation of systolic pressure with respect to the basal values ([4]; 25 mg/kg i.p., 1 hour): -6.6 ± 13.4%
- Percentage variation of systolic pressure with respect to the basal values ([4]; 25 mg/kg i.p., 4 hours): -46.2 ± 3.4%
- Percentage variation of systolic pressure with respect to the basal values ([4]; 25 mg/kg i.p., 24 hours): -2.2 ± 2.8%
- Dose dependence of hypotensive activity ([4]; 10 and 25 mg/kg i.p.): depends on the dose
- Decrease in systolic pressure relative to the decrease caused by hydralazine ([4]; AF 544 25 mg/kg i.p. vs hydralazine 1 mg/kg i.p.): 2.5 times
- Time of maximum hypotensive effect [4]: reaches the maximum effect during the fourth hour
- Time of maximum decrease of pressure [5]: between the fourth and eighth hour
- Percentage variation of (systolic) pressure with respect to the basal values of the first day ([5]; day 1, 1 hour): -5%
- Percentage variation of (systolic) pressure with respect to the basal values of the first day ([5]; day 1, 4 hours): -20%
- Percentage variation of (systolic) pressure with respect to the basal values of the first day ([5]; day 1, 8 hours): -18%
- Percentage variation of (systolic) pressure with respect to the basal values of the first day ([5]; day 1, 24 hours): -19%
- Percentage variation of (systolic) pressure with respect to the basal values of the first day ([5]; day 2, 1 hour): -26%
- Percentage variation of (systolic) pressure with respect to the basal values of the first day ([5]; day 2, 4 hours): -20%
- Percentage variation of (systolic) pressure with respect to the basal values of the first day ([5]; day 2, 8 hours): -27%
- Percentage variation of (systolic) pressure with respect to the basal values of the first day ([5]; day 2, 24 hours): -28%
- Percentage variation of (systolic) pressure with respect to the basal values of the first day ([5]; day 3, 1 hour): -22%
- Percentage variation of (systolic) pressure with respect to the basal values of the first day ([5]; day 3, 4 hours): -11%
- Percentage variation of (systolic) pressure with respect to the basal values of the first day ([5]; day 3, 8 hours): -15%
- Percentage variation of (systolic) pressure with respect to the basal values of the first day ([5]; day 3, 24 hours): -12%
- Decrease of pressure at the twenty-fourth hour (in words) ([5]; relative to the maximum at 4-8 hours): remaining about the same during the twenty-fourth hour
- Effect on average pressure ([6]; 20 mg/kg oral): unchanged
- Effect on systolic pressure ([6]; 20 mg/kg oral): unchanged
- Reduction of diastolic pressure ([6]; 20 mg/kg oral): 10-15%
- Average reduction of all three parameters (diastolic, systolic and average pressure) ([6]; 40 mg/kg oral): about 25%
- Activity of renin [7]: increases in proportion to the dose of AF 544
- Quantity of angiotensin [8]: an increase in the quantity of angiotensin occurs, which is inversely proportional to the dose of AF 544
- Effect in % on pressure response to acetylcholine ([9]; 0.1 mg/kg i.v.): +5.0%
- Effect in % on pressure response to adrenaline ([9]; 0.1 mg/kg i.v.): -25.6%
- Effect in % on pressure response to carotid occlusion ([9]; 0.1 mg/kg i.v.): +3.5%
- Effect in % on pressure response to vagal stimulation ([9]; 0.1 mg/kg i.v.): +11.5%
- Effect on arterial pressure, % ([9]; 0.1 mg/kg i.v.): -13.9%
- Effect on arterial pressure, mm Hg ± e.s ([9]; 0.1 mg/kg i.v.): -12.5 mm Hg
- Respiration, amplitude % ([9]; 0.1 mg/kg i.v.): +50.9%
- Respiration, frequency % ([9]; 0.1 mg/kg i.v.): +31.4%
- Transitory hypotension ([9]; 0.1 mg/kg intravenously): 13.9%
- Effect in % on pressure response to acetylcholine ([9]; 1 mg/kg i.v.): +4.5%
- Effect in % on pressure response to adrenaline ([9]; 1 mg/kg i.v.): +4.0%
- Effect in % on pressure response to carotid occlusion ([9]; 1 mg/kg i.v.): +2.5%
- Effect in % on pressure response to vagal stimulation ([9]; 1 mg/kg i.v.): +20.4%
- Effect on arterial pressure, % ([9]; 1 mg/kg i.v.): -46.0%
- Effect on arterial pressure, mm Hg ± e.s ([9]; 1 mg/kg i.v.): -36.7 mm Hg
- Respiration, amplitude % ([9]; 1 mg/kg i.v.): +16.1%
- Respiration, frequency % ([9]; 1 mg/kg i.v.): -8.5%
- Transitory hypotension ([9]; 1 mg/kg intravenously): 46.0%
- Variations of the other parameters observed (in words) ([9]; 0.1-1 mg/kg i.v., respiration, responses to agonists): small and statistically they are not significant
- Spasmolytic activity (in words) ([10]; efficacy compared with papaverine in the same concentration): high spasmolytic activity with an efficacy which is statistically analogous to that of papaverine in the same concentration
- % inhibition [10]: 49.8 ± 7.44%
- Solubility in common organic solvents ([1]; by heating, common organic solvents): soluble by heating in common organic solvents

Compound: NNc1nncc2ccccc12 [HYDRALAZINE, hydralazine, reference compound]
- Percentage variation of systolic pressure with respect to the basal values ([4]; 1 mg/kg i.p., 1 hour): +21.0 ± 4.9%
- Percentage variation of systolic pressure with respect to the basal values ([4]; 1 mg/kg i.p., 4 hours): -18.0 ± 3.1%
- Percentage variation of systolic pressure with respect to the basal values ([4]; 1 mg/kg i.p., 24 hours): -7.5 ± 7.8%
- Time of maximum hypotensive effect [4]: reaches the maximum even during the first hour

Compound: COc1ccc(Cc2nccc3cc(OC)c(OC)cc23)cc1OC [PAPAVERINE, papaverine, reference compound]
- inhibition at 50 µg/mL ([3]; Rattus norvegicus): 39.3%
- Decrease in pressure, mm Hg ± e.s [3, 11]: 82 ± 13.6 mm Hg
- % inhibition [10]: 73.7 ± 8.09%
